Reference: paper PMC6422671 (British Journal of Clinical Pharmacology, 2019)

Experiment: Clinical laboratory findings: chemistry; data mean (standard deviation)
Format: in vivo, healthy men
Source text: Data are mean (standard deviation).

C[C@@H](N)c1cc(Cl)ccc1Cn1c(=S)[nH]c(=O)c2[nH]ccc21 [AZD4831]
ALP (5 mg fasted, 24 h): 0.997 (0.210) µkat L^–1 | ALT (5 mg fasted, 24 h): 0.397 (0.159) µkat L^–1 | AST (5 mg fasted, 24 h): 0.370 (0.103) µkat L^–1 | Albumin (5 mg fasted, 24 h): 42.6 (2.4) g L^–1 | Bilirubin (5 mg fasted, 24 h): 12.3 (2.6) µmol L^–1 | CRP (5 mg fasted, 24 h): 0.38 (0.22) mg L^–1 | Calcium (5 mg fasted, 24 h): 2.36 (0.04) mmol L^–1 | Creatinine (5 mg fasted, 24 h): 82.2 (10.3) µmol L^–1 | GGT (5 mg fasted, 24 h): 0.288 (0.103) µkat L^–1 | Glucose (5 mg fasted, 24 h): 4.69 (0.32) mmol L^–1 | Phosphate (5 mg fasted, 24 h): 1.12 (0.09) mmol L^–1 | Potassium (5 mg fasted, 24 h): 4.14 (0.23) mmol L^–1 | Sodium (5 mg fasted, 24 h): 136.3 (0.8) mmol L^–1 | Urea (5 mg fasted, 24 h): 4.66 (0.90) mmol L^–1 | ALP (5 mg fasted, 48 h): 0.989 (0.186) µkat L^–1 | ALT (5 mg fasted, 48 h): 0.405 (0.142) µkat L^–1 | AST (5 mg fasted, 48 h): 0.357 (0.077) µkat L^–1 | Albumin (5 mg fasted, 48 h): 43.3 (2.1) g L^–1 | Bilirubin (5 mg fasted, 48 h): 10.6 (2.3) µmol L^–1 | CRP (5 mg fasted, 48 h): 0.48 (0.40) mg L^–1 | Calcium (5 mg fasted, 48 h): 2.38 (0.04) mmol L^–1 | Creatinine (5 mg fasted, 48 h): 80.9 (4.7) µmol L^–1 | GGT (5 mg fasted, 48 h): 0.287 (0.105) µkat L^–1 | Glucose (5 mg fasted, 48 h): 4.76 (0.32) mmol L^–1 | Phosphate (5 mg fasted, 48 h): 0.99 (0.12) mmol L^–1 | Potassium (5 mg fasted, 48 h): 4.23 (0.16) mmol L^–1 | Sodium (5 mg fasted, 48 h): 137.5 (0.6) mmol L^–1 | Urea (5 mg fasted, 48 h): 4.52 (1.08) mmol L^–1 | ALP (5 mg fasted, follow up): 1.094 (0.227) µkat L^–1 | ALT (5 mg fasted, follow up): 0.407 (0.063) µkat L^–1 | AST (5 mg fasted, follow up): 0.413 (0.097) µkat L^–1 | Albumin (5 mg fasted, follow up): 45.3 (1.3) g L^–1 | Bilirubin (5 mg fasted, follow up): 12.5 (3.3) µmol L^–1 | CRP (5 mg fasted, follow up): 1.27 (1.43) mg L^–1 | Calcium (5 mg fasted, follow up): 2.42 (0.04) mmol L^–1 | Creatinine (5 mg fasted, follow up): 84.8 (9.1) µmol L^–1 | GFR (5 mg fasted, follow up): 98 (15) mL min^–1 1.73m^–2 | GGT (5 mg fasted, follow up): 0.307 (0.093) µkat L^–1 | Glucose (5 mg fasted, follow up): 4.78 (0.68) mmol L^–1 | Phosphate (5 mg fasted, follow up): 1.11 (0.10) mmol L^–1 | Potassium (5 mg fasted, follow up): 4.32 (0.22) mmol L^–1 | Sodium (5 mg fasted, follow up): 138.4 (1.5) mmol L^–1 | Urea (5 mg fasted, follow up): 4.57 (1.29) mmol L^–1 | ALP (15 mg fasted, 24 h): 1.165 (0.364) µkat L^–1 | ALT (15 mg fasted, 24 h): 0.475 (0.222) µkat L^–1 | AST (15 mg fasted, 24 h): 0.394 (0.098) µkat L^–1 | Albumin (15 mg fasted, 24 h): 43.2 (2.7) g L^–1 | Bilirubin (15 mg fasted, 24 h): 14.5 (6.3) µmol L^–1 | CRP (15 mg fasted, 24 h): 0.53 (0.28) mg L^–1 | Calcium (15 mg fasted, 24 h): 2.35 (0.11) mmol L^–1 | Creatinine (15 mg fasted, 24 h): 76.2 (10.7) µmol L^–1 | GGT (15 mg fasted, 24 h): 0.504 (0.232) µkat L^–1 | Glucose (15 mg fasted, 24 h): 4.57 (0.21) mmol L^–1 | Phosphate (15 mg fasted, 24 h): 1.14 (0.14) mmol L^–1 | Potassium (15 mg fasted, 24 h): 4.12 (0.24) mmol L^–1 | Sodium (15 mg fasted, 24 h): 137.5 (1.0) mmol L^–1 | Urea (15 mg fasted, 24 h): 4.35 (0.61) mmol L^–1 | ALP (15 mg fasted, 48 h): 1.159 (0.329) µkat L^–1 | ALT (15 mg fasted, 48 h): 0.515 (0.255) µkat L^–1 | AST (15 mg fasted, 48 h): 0.406 (0.116) µkat L^–1 | Albumin (15 mg fasted, 48 h): 44.2 (2.6) g L^–1 | Bilirubin (15 mg fasted, 48 h): 13.6 (6.0) µmol L^–1 | CRP (15 mg fasted, 48 h): 0.62 (0.40) mg L^–1 | Calcium (15 mg fasted, 48 h): 2.37 (0.10) mmol L^–1 | Creatinine (15 mg fasted, 48 h): 75.9 (12.3) µmol L^–1 | GGT (15 mg fasted, 48 h): 0.501 (0.243) µkat L^–1 | Glucose (15 mg fasted, 48 h): 4.72 (0.23) mmol L^–1 | Phosphate (15 mg fasted, 48 h): 1.11 (0.16) mmol L^–1 | Potassium (15 mg fasted, 48 h): 4.23 (0.25) mmol L^–1 | Sodium (15 mg fasted, 48 h): 138.8 (0.8) mmol L^–1 | Urea (15 mg fasted, 48 h): 4.30 (0.74) mmol L^–1 | ALP (15 mg fasted, follow up): 1.240 (0.380) µkat L^–1 | ALT (15 mg fasted, follow up): 0.504 (0.193) µkat L^–1 | AST (15 mg fasted, follow up): 0.420 (0.085) µkat L^–1 | Albumin (15 mg fasted, follow up): 45.2 (3.1) g L^–1 | Bilirubin (15 mg fasted, follow up): 11.3 (5.5) µmol L^–1 | CRP (15 mg fasted, follow up): 1.37 (0.47) mg L^–1 | Calcium (15 mg fasted, follow up): 2.38 (0.14) mmol L^–1 | Creatinine (15 mg fasted, follow up): 78.4 (9.8) µmol L^–1 | GFR (15 mg fasted, follow up): 114 (12) mL min^–1 1.73m^–2 | GGT (15 mg fasted, follow up): 0.534 (0.262) µkat L^–1 | Glucose (15 mg fasted, follow up): 4.62 (0.45) mmol L^–1 | Phosphate (15 mg fasted, follow up): 1.15 (0.08) mmol L^–1 | Potassium (15 mg fasted, follow up): 4.39 (0.30) mmol L^–1 | Sodium (15 mg fasted, follow up): 136.9 (1.1) mmol L^–1 | Urea (15 mg fasted, follow up): 4.79 (1.46) mmol L^–1 | ALP (45 mg fasted, 24 h): 1.061 (0.228) µkat L^–1 | ALT (45 mg fasted, 24 h): 0.329 (0.098) µkat L^–1 | AST (45 mg fasted, 24 h): 0.293 (0.069) µkat L^–1 | Albumin (45 mg fasted, 24 h): 41.6 (2.4) g L^–1 | Bilirubin (45 mg fasted, 24 h): 12.0 (3.5) µmol L^–1 | CRP (45 mg fasted, 24 h): 0.77 (0.71) mg L^–1 | Calcium (45 mg fasted, 24 h): 2.34 (0.05) mmol L^–1 | Creatinine (45 mg fasted, 24 h): 75.8 (7.2) µmol L^–1 | GGT (45 mg fasted, 24 h): 0.315 (0.072) µkat L^–1 | Glucose (45 mg fasted, 24 h): 4.90 (0.29) mmol L^–1 | Phosphate (45 mg fasted, 24 h): 1.17 (0.08) mmol L^–1 | Potassium (45 mg fasted, 24 h): 4.29 (0.10) mmol L^–1 | Sodium (45 mg fasted, 24 h): 139.2 (1.7) mmol L^–1 | Urea (45 mg fasted, 24 h): 4.25 (0.47) mmol L^–1 | ALP (45 mg fasted, 48 h): 1.097 (0.257) µkat L^–1 | ALT (45 mg fasted, 48 h): 0.319 (0.095) µkat L^–1 | AST (45 mg fasted, 48 h): 0.288 (0.074) µkat L^–1 | Albumin (45 mg fasted, 48 h): 42.5 (2.7) g L^–1 | Bilirubin (45 mg fasted, 48 h): 12.3 (3.3) µmol L^–1 | CRP (45 mg fasted, 48 h): 0.58 (0.49) mg L^–1 | Calcium (45 mg fasted, 48 h): 2.34 (0.05) mmol L^–1 | Creatinine (45 mg fasted, 48 h): 73.2 (6.4) µmol L^–1 | GGT (45 mg fasted, 48 h): 0.312 (0.064) µkat L^–1 | Glucose (45 mg fasted, 48 h): 5.06 (0.19) mmol L^–1 | Phosphate (45 mg fasted, 48 h): 1.12 (0.09) mmol L^–1 | Potassium (45 mg fasted, 48 h): 4.18 (0.20) mmol L^–1 | Sodium (45 mg fasted, 48 h): 140.9 (2.2) mmol L^–1 | Urea (45 mg fasted, 48 h): 4.24 (0.55) mmol L^–1 | ALP (45 mg fasted, follow up): 1.165 (0.282) µkat L^–1 | ALT (45 mg fasted, follow up): 0.324 (0.059) µkat L^–1 | AST (45 mg fasted, follow up): 0.356 (0.054) µkat L^–1 | Albumin (45 mg fasted, follow up): 44.1 (2.6) g L^–1 | Bilirubin (45 mg fasted, follow up): 12.9 (5.6) µmol L^–1 | CRP (45 mg fasted, follow up): 2.89 (5.30) mg L^–1 | Calcium (45 mg fasted, follow up): 2.35 (0.04) mmol L^–1 | Creatinine (45 mg fasted, follow up): 74.6 (9.2) µmol L^–1 | GFR (45 mg fasted, follow up): 112 (12) mL min^–1 1.73m^–2 | GGT (45 mg fasted, follow up): 0.300 (0.052) µkat L^–1 | Glucose (45 mg fasted, follow up): 4.84 (0.54) mmol L^–1 | Phosphate (45 mg fasted, follow up): 1.12 (0.20) mmol L^–1 | Potassium (45 mg fasted, follow up): 4.18 (0.18) mmol L^–1 | Sodium (45 mg fasted, follow up): 139.5 (1.3) mmol L^–1 | Urea (45 mg fasted, follow up): 3.90 (0.63) mmol L^–1
